Source: US20140093457A1, “Compositions, methods and kits for remineralization and inhibition of dental caries in teeth” (President and Fellows of Harvard College, priority 2010, published 2014)
Read-outs that look alike come from different tables or passages of the source.

Columns and labels:
[1] = Detection probes on interproximal models of extracted human teeth; settings: for degree of detection: early stage caries lesion, optical observation; for emission wavelength (nm) / excitation/absorbance wavelength (nm): probe bound to interproximal enamel caries; for optical observation of early stage caries lesion with bound probe (photograph): tooth preparation illuminated and photographed
Description: Interproximal models of extracted human teeth (molars and premolars) were fabricated using silicon impression materials. Interproximal enamel caries at about […] depth and at about 1.5 mm depth were prepared by using areas of interproximal contact regions. The dental preparations having synthetic caries were assessed by radiographic films (bitewings) and a microscope.
A cotton ball was saturated with the detection probe, and placed in contact with the region of the interproximal enamel caries. The bound probe was observed by illuminating over a varying set of different wavelengths of excitation light, followed by detecting light of fluorescent emissions. Furthermore, absorbance of the illuminating wavelengths was detected as appropriate for each probe.
Each tooth preparation having interproximal enamel caries and bound probe was illuminated and photographed.

[2] = Intensity and duration of fluorescence of probe dilutions bound to caries; settings: for fluorescent intensity compared to IR820 (ICG): dilutions 1:10 and 1:100 of 1 mg/mL stock, deep and shallow lesions
Description: Probes were tested for appropriate concentration, kinetics of binding and retention. Intensity of the illumination light, and the size of the illumination light beam were varied, and data were recorded for each probe. […] The concentration of each probe was varied to determine an optimum concentration for binding during a time period suitable for dental use. Durations of contacting were also tested, for example about 10 seconds, about 20 seconds, about 40 seconds, or about 60 seconds. Binding of the probes to the surface of a tooth having different occlusal cavity conditions were also determined, e.g., plaque, gingival, calculus.
See FIG. 10A and FIG. 10B, and FIG. 11A-FIG. 11D.

[3] = hydrogen peroxide 38%
Description: The efficacy of removal of the probe by the solution was determined by criteria such as extent of fluorescence remaining on a tooth after rinse, or fluorescence extracted from hydroxyapatite into a rinse solution.

[4] = Removal of OsteoSense 750 from hydroxyapatite, spectrophotometry at 750 nm; settings: hydrogen peroxide 30%, phosphoric acid 40%
Description: The tubes were vortexed, and the mixture was allowed to settle to obtain a supernatant. Each supernatant was collected and analyzed for probe content using a spectrophotomer.
The HA sample was washed with PBS and a spectrophotometric scan of the wash solution was performed.

[5] = RFU comparison of solutions to release OsteoSense 750 from HA
Description: Variables included conditions of pH, temperature, and presence of 1% calcium chloride.
Three conditions were tested: incubation for 15 minutes at 37° C. after vortexing; adjusting pH to 6.5 at 23° C. after vortexing; and addition of 1% calcium chloride to each solution and incubation at room temperature after vortexing.

[6] = 1% solution with calcium chloride (1%), room temperature
[7] = 1% solution, 15 minutes at 37° C.
[8] = 1% solution, pH 6.5, room temperature
[9] = 5% solution with calcium chloride (1%), room temperature
[10] = 5% solution, 15 minutes at 37° C.
[11] = 5% solution, pH 6.5, room temperature
[12] = 10% solution with calcium chloride (1%), room temperature
[13] = 10% solution, 15 minutes at 37° C.
[14] = 10% solution, pH 6.5, room temperature
[15] = 20% solution with calcium chloride (1%), room temperature
[16] = 20% solution, 15 minutes at 37° C.
[17] = 20% solution, pH 6.5, room temperature

CC1(C)C(/C=C/C=C/C=C/C=C2\N(CCCCS(=O)(=O)[O-])c3ccc4ccccc4c3C2(C)C)=[N+](CCCCS(=O)(=O)[O-])c2ccc3ccccc3c21.[Na+] [CardioGreen (ICG)]
degree of detection [1]: Good | emission wavelength (nm) [1]: 820-870 nm | excitation/absorbance wavelength (nm) [1]: 750-800 nm | fluorescent intensity compared to IR820 (ICG) [2]: greater fluorescent intensity at each concentration and lesion depth compared to IR820 (ICG)

C=Cc1c(C)c2cc3nc(c4c5[n-]c(cc6nc(cc1[n-]2)C(C)=C6CC)c(C)c5C(=O)[C@@H]4C(=O)OC)[C@@H](CCC(=O)OC/C=C(\C)CCC[C@H](C)CCC[C@H](C)CCCC(C)C)[C@@H]3C.[Mg+2] [Chlorophyll A]
degree of detection [1]: Good | emission wavelength (nm) [1]: 670-900 nm | excitation/absorbance wavelength (nm) [1]: 614 nm | optical observation of early stage caries lesion with bound probe (photograph) [1]: Fluorescence of an early stage caries lesion was observed

COc1cccc2c1C(=O)c1c(O)c3c(c(O)c1C2=O)C[C@@](O)(C(=O)CO)C[C@@H]3O[C@H]1C[C@H](N)[C@H](O)[C@H](C)O1 [Doxorubicin]
degree of detection [1]: Good | emission wavelength (nm) [1]: 630 nm | excitation/absorbance wavelength (nm) [1]: 480 nm | optical observation of early stage caries lesion with bound probe (photograph) [1]: Fluorescence of an early stage caries lesion was observed

CC1(C)C(=CC=C2CCCC(C=CC3=[N+](CCCCS(=O)(=O)[O-])c4ccc5ccccc5c4C3(C)C)=C2Cl)N(CCCCS(=O)(=O)[O-])c2ccc3ccccc3c21.[Na+] [IR820 (ICG)]
degree of detection [1]: Good | emission wavelength (nm) [1]: 845 nm | excitation/absorbance wavelength (nm) [1]: 745 nm

CC1(C)C(/C=C/C=C/C=C/C=C2\N(CCCCS(=O)(=O)O)c3ccc4ccccc4c3C2(C)C)=[N+](CCCCS(=O)(=O)[O-])c2ccc3ccccc3c21 [Indocyanine Green]
degree of detection [1]: Weak | emission wavelength (nm) [1]: 835 nm | excitation/absorbance wavelength (nm) [1]: 800 nm

C1=Cc2cc3ccc(cc4nc(cc5ccc(cc1n2)[nH]5)C=C4)[nH]3 [Porphyrin]
degree of detection [1]: Good | emission wavelength (nm) [1]: 700 nm | excitation/absorbance wavelength (nm) [1]: 600 nm | optical observation of early stage caries lesion with bound probe (photograph) [1]: Fluorescence of an early stage caries lesion was observed

OO [hydrogen peroxide]
fluorescence of OsteoSense 750 bound to caries lesion after application with a syringe [3]: eliminated fluorescence | fluorescence of OsteoSense 750 bound to the tooth after rinse ([3]; ten minutes after application): substantially eliminated | fluorescence of OsteoSense 750 bound to the tooth after rinse ([3]; three minutes after application): substantially reduced | spectrometric signal at 750 nm in supernatant (release of OsteoSense 750 from HA) [4]: no signal at 750 nm

O=P(O)(O)O [phosphoric acid (PA), phosphoric acid]
spectrometric signal at 750 nm in supernatant (release of OsteoSense 750 from HA) [4]: definite peak at 750 nm | % released of total OsteoSense [5, 6]: 1.01% | % released of total reference value [5, 6]: 2.27% | Raw RFU value [5, 6]: 0.38 RFU | % released of total OsteoSense [5, 7]: 4.61% | % released of total reference value [5, 7]: 7.36% | Raw RFU value [5, 7]: 1.73 RFU | % released of total OsteoSense [5, 8]: 6.17% | % released of total reference value [5, 8]: 18.74% | Raw RFU value [5, 8]: 2.31 RFU | % released of total OsteoSense [5, 9]: 9.44% | % released of total reference value [5, 9]: 40.79% | Raw RFU value [5, 9]: 3.54 RFU | % released of total OsteoSense [5, 10]: 9.78% | % released of total reference value [5, 10]: 18.94% | Raw RFU value [5, 10]: 3.67 RFU | % released of total OsteoSense [5, 11]: 28.38% | % released of total reference value [5, 11]: 39.54% | Raw RFU value [5, 11]: 10.64 RFU | % released of total OsteoSense [5, 12]: 10.57% | % released of total reference value [5, 12]: 43.29% | Raw RFU value [5, 12]: 3.97 RFU | % released of total OsteoSense [5, 13]: 4.37% | % released of total reference value [5, 13]: 9.10% | Raw RFU value [5, 13]: 1.64 RFU | % released of total OsteoSense [5, 14]: 45.32% | % released of total reference value [5, 14]: 67.03% | Raw RFU value [5, 14]: 17.00 RFU | % released of total OsteoSense [5, 15]: 5.12% | % released of total reference value [5, 15]: 11.99% | Raw RFU value [5, 15]: 1.92 RFU | % released of total OsteoSense [5, 16]: 3.54% | % released of total reference value [5, 16]: 8.51% | Raw RFU value [5, 16]: 1.33 RFU | % released of total OsteoSense [5, 17]: 25.34% | % released of total reference value [5, 17]: 39.91% | Raw RFU value [5, 17]: 9.50 RFU

O=P([O-])(O)O.[Na+] [sodium phosphate monobasic (M), sodium phosphate monobasic]
% released of total OsteoSense [5, 6]: 0.60% | % released of total reference value [5, 6]: 2.51% | Raw RFU value [5, 6]: 0.22 RFU | % released of total OsteoSense [5, 7]: 3.10% | % released of total reference value [5, 7]: 3.65% | Raw RFU value [5, 7]: 1.16 RFU | % released of total OsteoSense [5, 8]: 6.36% | % released of total reference value [5, 8]: 9.73% | Raw RFU value [5, 8]: 2.38 RFU | % released of total OsteoSense [5, 9]: 5.34% | % released of total reference value [5, 9]: 11.39% | Raw RFU value [5, 9]: 2.00 RFU | % released of total OsteoSense [5, 10]: 10.41% | % released of total reference value [5, 10]: 13.11% | Raw RFU value [5, 10]: 3.90 RFU | % released of total OsteoSense [5, 11]: 23.87% | % released of total reference value [5, 11]: 31.74% | Raw RFU value [5, 11]: 8.95 RFU | % released of total OsteoSense [5, 12]: 10.27% | % released of total reference value [5, 12]: 20.25% | Raw RFU value [5, 12]: 3.85 RFU | % released of total OsteoSense [5, 13]: 23.92% | % released of total reference value [5, 13]: 32.36% | Raw RFU value [5, 13]: 8.97 RFU | % released of total OsteoSense [5, 14]: 32.44% | % released of total reference value [5, 14]: 45.17% | Raw RFU value [5, 14]: 12.16 RFU | % released of total OsteoSense [5, 15]: 20.04% | % released of total reference value [5, 15]: 39.19% | Raw RFU value [5, 15]: 7.51 RFU | % released of total OsteoSense [5, 16]: 27.67% | % released of total reference value [5, 16]: 50.11% | Raw RFU value [5, 16]: 10.37 RFU | % released of total OsteoSense [5, 17]: 33.90% | % released of total reference value [5, 17]: 51.43% | Raw RFU value [5, 17]: 12.71 RFU

cyanine dye 7 [Cy7]
emission wavelength (nm) [1]: 760-800 nm | excitation/absorbance wavelength (nm) [1]: 700-770 nm | retained fluorescence intensity compared to CardioGreen (ICG) diluted 1:10 ([2]; diluted 1:10, deep and shallow lesions): much greater intensity in both deep and shallow lesions | fluorescent intensity compared to IR820 (ICG) [2]: greater fluorescent intensity at each concentration and lesion depth compared to IR820 (ICG)
